The values that follow come from patent US20220008350A1, “PROCESS FOR ENGINEERING TARGETED NANOPARTICLES” (University of North Texas Health Science Center, priority 2018, published 2022).

Data set [1] addresses ATP-dependent drug efflux pump glycoprotein (P-gp) (Homo sapiens, UniProt P08183). Particulars: cited from earlier work.
Data set [2] is described as follows: In vivo bone retention (intraosseous injection). Particulars: injected into mouse tibia, live animal imaging up to 72 hours, NIR dye. Here is the method: In vivo bone retention. […] Animals were imaged initially and at time points: 1 hour, 24 hours, 48 hours, and 72 hours to assess for NIR signal on IVIS animal imager. Fluorescent signal was quantified at each time and compared to the signal for the initial time point of each mouse to give the percentage of retained nanoparticle in the bone. Additionally, half-life of nanoparticle signal in the bone was calculated with the following equation: N(t)=N0(½)^(t/t1/2).

For data set [3], the system named is integrin αVβ3 surface expression in C4-2B prostate cancer cells. As to the kind of experiment: αVβ3 protein stimulation and verification (immunocytochemistry). Particulars: C4-2B cells, 200 ng/mL CXCL12, after first hour, constant for 12 hours. Format: cell-based, human. Here is the method:
αVβ3 Protein Stimulation and Verification. C4-2B cells were grown on glass coverslips in a six-well dish and then stimulated to express αVβ3 by treatment with 200 ng/mL of recombinant human CXCL12 (R&D Systems, Minneapolis, Minn.) for 1, 6, or 12 hours at 37° C. After cells were stimulated they were rinsed with PBS, fixed with 4% formaldehyde (Affymetrix) for 10 min at room temperature, washed twice with PBS, and blocked for 1 hour with 1% BSA in PBS. Next cells were incubated for 4 hours with a 1:100 dilution of anti-integrin αVβ3 antibody, clone LM609 (Millipore). Incubation was followed by three washes with PBS, and then incubated for 45 minutes with a 1:200 dilution of the goat anti-mouse IgG (H+L) secondary antibody, Alexa Fluor 488 conjugate (Life Technologies). Cells were washed twice more and mounted on slides with Prolong Gold antifade reagent with DAPI (Invitrogen). Fluorescent images were taken with Olympus AX70 Florescent Microscope.

Chain of ATP-dependent drug efflux pump glycoprotein (P-gp) (P08183 whole entry): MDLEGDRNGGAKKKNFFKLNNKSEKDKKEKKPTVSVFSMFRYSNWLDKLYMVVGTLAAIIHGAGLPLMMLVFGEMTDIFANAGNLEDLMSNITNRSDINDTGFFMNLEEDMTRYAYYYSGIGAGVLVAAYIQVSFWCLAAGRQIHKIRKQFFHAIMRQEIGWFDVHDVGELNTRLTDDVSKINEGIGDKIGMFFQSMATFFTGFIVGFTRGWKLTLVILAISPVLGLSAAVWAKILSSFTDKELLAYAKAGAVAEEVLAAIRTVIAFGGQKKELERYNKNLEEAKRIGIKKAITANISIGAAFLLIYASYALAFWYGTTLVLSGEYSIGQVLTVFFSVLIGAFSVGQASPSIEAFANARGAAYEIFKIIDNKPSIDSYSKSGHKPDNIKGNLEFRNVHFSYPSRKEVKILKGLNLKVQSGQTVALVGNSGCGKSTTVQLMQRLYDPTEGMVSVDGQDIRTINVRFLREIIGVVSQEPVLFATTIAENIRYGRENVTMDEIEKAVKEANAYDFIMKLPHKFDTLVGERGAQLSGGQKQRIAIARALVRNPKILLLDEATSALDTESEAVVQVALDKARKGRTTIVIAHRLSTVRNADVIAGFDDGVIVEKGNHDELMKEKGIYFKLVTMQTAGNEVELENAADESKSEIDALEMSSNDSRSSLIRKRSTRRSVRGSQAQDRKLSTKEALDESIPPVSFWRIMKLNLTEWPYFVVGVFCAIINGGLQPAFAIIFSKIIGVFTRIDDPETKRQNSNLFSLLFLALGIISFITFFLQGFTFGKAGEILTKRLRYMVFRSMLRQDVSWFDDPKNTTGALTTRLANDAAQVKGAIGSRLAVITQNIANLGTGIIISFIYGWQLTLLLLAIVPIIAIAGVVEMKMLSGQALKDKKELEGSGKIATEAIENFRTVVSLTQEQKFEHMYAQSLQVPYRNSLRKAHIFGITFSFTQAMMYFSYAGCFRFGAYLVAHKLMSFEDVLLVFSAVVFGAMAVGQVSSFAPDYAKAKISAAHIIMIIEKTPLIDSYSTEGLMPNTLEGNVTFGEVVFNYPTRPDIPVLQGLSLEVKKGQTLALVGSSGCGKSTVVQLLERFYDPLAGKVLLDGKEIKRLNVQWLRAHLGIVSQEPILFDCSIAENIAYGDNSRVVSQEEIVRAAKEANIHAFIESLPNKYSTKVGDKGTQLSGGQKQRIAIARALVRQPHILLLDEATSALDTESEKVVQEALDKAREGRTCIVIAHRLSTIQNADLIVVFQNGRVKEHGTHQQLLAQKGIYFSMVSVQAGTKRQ

Take `CO[C@H]1C(=O)[C@]2(C)[C@@H](OC)C[C@H]3OC[C@@]3(OC(C)=O)[C@H]2[C@H](OC(=O)c2ccccc2)[C@]2(O)C[C@H](OC(=O)[C@H](O)[C@@H](NC(=O)OC(C)(C)C)c3ccccc3)C(C)=C1C2(C)C` [Cabazitaxel]: in data set [1], the “substrate affinity for P-gp” value is on record as “lower substrate affinity”. With `CCCN1C(=CC=C2CCCC(C=CC3=[N+](CCC)c4ccccc4C3(C)C)=C2Cl)C(C)(C)c2ccccc21.[I-]` [dye, IR-780 dye], in data set [2], the “retention and half-life in the bone” value is “equivalent regarding retention in the bone”. With “C-X-C motif chemokine ligand 12 [CXCL12]”, in data set [3], the “increase in expression level of αVβ3” value is recorded as “approximately 2 fold”.
